Assay [1] has as its system MiaPaca-2 cells. The experiment in a line: MiaPaca-2 cell proliferation assay. The note with it: Homo sapiens, MIA PaCa-2. In kind it is cell-based. Here is the method:
Miapaca-2 cells (catalog #CRL-1420) are obtained from the American Type Culture Collect (ATTC, Manassas, VA). Briefly, cells were grown in DMEM supplemented with 10% characterized fetal bovine serum (Invitrogen, Carlsbad, CA), 2.5% New Zealand sourced horse serum and 1% Penicillin/Streptomycin/L-Glutamine at 37° C., 5% CO2, and 95% humidity. Cells are expanded until reaching 70-95% confluency at which point they are sub-cultured or harvested for assay use. A serial dilution of test compound is dispensed into a 384-well black clear bottom plate in triplicate. Seven hundred fifty cells are added per well in 50 μL complete growth medium in the 384-well plate. Plates are incubated for 67-72 h at 37° C., 5% CO2, and 95% humidity. At the end of the incubation, 10 μL of a 440 μM solution of resazurin (Sigma, St. Louis, MO) in PBS is added to each well of the plate and plates are incubated for an additional 5-6 h at 37° C., 5% CO2, and 95% humidity. Plates are read on a Synergy2 or equivalent reader (Biotek, Winooski VT) using an excitation of 540 nm and an emission of 600 nm. Data is analyzed using Prism software (GraphPad, San Diego, CA) to calculate IC50 values.

The subject of assay [2] is HCT-116 cells. The experiment in a line: HCT-116 cell proliferation assay. In kind it is cell-based. The note with it: for IC50: Homo sapiens. On the procedure: HCT-116 cells (catalog #CCL-247) are obtained from the American Type Culture Collect (ATCC, Manassas, VA). Briefly, cells are grown in McCoy's 5A supplemented with 10% characterized fetal bovine serum (Invitrogen, Carlsbad, CA) and 1% Penicillin/Streptomycin/L-Glutamine at 37° C., 5% CO2, and 95% humidity. Cells are expanded until reaching 70-95% confluency at which point they are sub-cultured or harvested for assay use. A serial dilution of test compound is dispensed into a 384-well black clear bottom plate in triplicate. 375 cells are added per well in 50 μL complete growth medium in the 384-well plate. Plates are incubated for 67 to 72 h at 37° C., 5% CO2, and 95% humidity. At the end of the incubation, 40 μL of a […] solution of resazurin (Sigma, St. Louis, MO) in PBS is added to each well of the plate and plates are incubated for an additional 4 to 5 h at 37° C., 5% CO2, and 95% humidity. Plates are read on a Synergy2 or equivalent reader (Biotek, Winooski, VT) using an excitation of 540 nm and an emission of 600 nm. Data is analyzed using Prism software (Graphpad, San Diego, CA) to calculate IC50 values.

Assay [3] has as its system HPAF-II cells. The experiment in a line: HPAF-II cell proliferation assay. The class given is cell-based. To be noted: Homo sapiens. On the procedure:
(§1) HPAF-II cells (catalog #CRL-1997) are obtained from the American Type Culture Collect (ATCC, Manassas, VA). Briefly, cells are grown in Minimum Essential Media supplemented with 10% characterized fetal bovine serum (Invitrogen, Carlsbad, CA) and 1% Penicillin/Streptomycin/L-Glutamine at 37° C., 5% CO2, and 95% humidity. Cells are expanded until reaching 70-95% confluency at which point they are sub-cultured or harvested for assay use. A serial dilution of test compound is dispensed into a 384-well black clear bottom plate in triplicate. 750 cells are added per well in 50 μL complete growth medium in the 384-well plate. Plates are incubated for 115 to 120 h at 37° C., 5% CO2, and 95% humidity. At the end of the incubation, 40 μL of a […] solution of resazurin (Sigma, St. Louis, MO) in PBS is added to each well of the plate and plates are incubated for an additional 18 to 24 h at 37° C., 5% CO2, and 95% humidity. Plates are read on a Synergy2 or equivalent reader (Biotek, Winooski, VT) using an excitation of 540 nm and an emission of 600 nm. Data is analyzed using Prism software (Graphpad, San Diego, CA) to calculate IC50 values.

Assay [4] has as its target T1, B-Raf kinase (SEQ ID NO: 1) (Homo sapiens, UniProt P15056).
T1 construct: GST (N); purchased Sigma
Description: Biochemical assay for B-Raf (coupled pyruvate kinase/lactate dehydrogenase). To be noted: 1 mM ATP; read-out: BRAF (inhibition of biochemical activity, IC50).

The target in assay [5] is T2, C-Raf kinase (SEQ ID NO: 2) (Homo sapiens, UniProt P04049, Y340D/Y341D).
T2 construct: C-Raf residues 306-end; Y340D, Y341D with N-; GST (N); purchased Sigma
T2 sequence (P04049 307-648 Y340D/Y341D): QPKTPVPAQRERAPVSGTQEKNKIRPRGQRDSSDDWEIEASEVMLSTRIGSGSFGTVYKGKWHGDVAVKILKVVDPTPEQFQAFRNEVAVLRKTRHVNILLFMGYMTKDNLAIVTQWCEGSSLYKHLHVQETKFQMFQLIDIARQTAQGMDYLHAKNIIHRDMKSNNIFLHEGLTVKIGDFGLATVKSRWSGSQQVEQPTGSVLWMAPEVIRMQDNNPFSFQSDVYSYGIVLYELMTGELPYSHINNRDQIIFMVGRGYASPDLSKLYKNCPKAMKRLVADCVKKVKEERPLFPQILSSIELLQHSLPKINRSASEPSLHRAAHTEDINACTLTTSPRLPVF
The experiment in a line: Biochemical assay for C-Raf (coupled pyruvate kinase/lactate dehydrogenase). To be noted: 1 mM ATP; read-out: CRAF (inhibition of biochemical activity, IC50).

Assay [6] concerns Pa16c cells. The experiment in a line: Pa16c cell proliferation assay. In kind it is cell-based. To be noted: 67 to 72 h incubation, resazurin; read-out: Pa16c (inhibition of cell proliferation, IC50). On the procedure:
as §1, with “Pa16c” for “HPAF-II”, “cells” for “cells (catalog #CRL-1997)”, “Dr. Channing Der, University of North Carolina at Chapel Hill.” for “the American Type Culture Collect (ATCC, Manassas, VA).”, “Dulbecco's Modified Eagle Medium” for “Minimum Essential Media”, “67” for “115”, “72” for “120”

The mark [7] stands for this setting: Table 4, mutant KRAS pancreatic cancer cell line, anti-proliferative, read-out: MiaPaca-2.
The mark [8] stands for this setting: Table 4, mutant KRAS colorectal cancer cell line, anti-proliferative, read-out: HCT-116.
[9] abbreviates: 67-72 h incubation, resazurin, read-out: MiaPaca-2 (inhibition of cell proliferation, IC50).
Setting [10] is: HCT-116, 67 to 72 h incubation, resazurin, read-out: HCT-116 (inhibition of cell proliferation, IC50).
The mark [11] stands for this setting: HPAF-II, 115 to 120 h incubation, resazurin, read-out: HPAF-II (inhibition of cell proliferation, IC50).

Read-outs that look alike come from different tables or passages of the source.

T1 sequence (P15056 416-766): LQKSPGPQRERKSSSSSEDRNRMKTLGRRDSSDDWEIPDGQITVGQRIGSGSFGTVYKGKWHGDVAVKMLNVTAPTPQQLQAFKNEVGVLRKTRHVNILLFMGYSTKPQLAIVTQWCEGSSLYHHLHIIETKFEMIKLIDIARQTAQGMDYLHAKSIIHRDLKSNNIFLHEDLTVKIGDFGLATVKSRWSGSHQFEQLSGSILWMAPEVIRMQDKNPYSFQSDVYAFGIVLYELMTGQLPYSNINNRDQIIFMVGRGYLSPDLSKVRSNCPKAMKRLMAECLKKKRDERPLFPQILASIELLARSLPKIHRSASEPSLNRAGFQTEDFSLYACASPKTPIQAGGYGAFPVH

Take `CC(C)(C)c1nc(-c2cccc(NS(=O)(=O)c3c(F)cccc3F)c2F)c(-c2ccnc(N)n2)s1` [Dabrafenib, dabrafenib, reference compound]: the IC50 in assay [1] (setting [7]) fell in the range of 1000 to 10000 nM; in assay [2] (setting [8]) it was 1000 to 10000 nM; in assay [3] (Table 4, mutant KRAS pancreatic cancer cell line, anti-proliferative, read-out: HPAF-II), 1000 to 10000 nM.

Take `Cc1ccc(NC(=O)c2cc(C(F)(F)F)cnn2)cc1-c1ccnc(N2CCOCC2)c1` [Example 1, N-(4-methyl-3-(2-morpholinopyridin-4-yl)phenyl)-5-(trifluoromethyl)pyridazine-3-carboxamide]: the IC50 in assay [4] was 100 to 500 nM; in assay [5], 100 to 500 nM; in assay [1] (setting [9]) it was < 100 nM; in assay [2] (setting [10]) it was 100 to 500 nM; in assay [3] (setting [11]) it was 100 to 500 nM; in assay [6], 100 to 500 nM.

For `Cc1ccc(NC(=O)c2cc(C3CC3)cnn2)cc1-c1ccnc(N2CCOCC2)c1` [Example 2, 5-cyclopropyl-N-(4-methyl-3-(2-morpholinopyridin-4-yl)phenyl)pyridazine-3-carboxamide], the IC50 was 100 to 500 nM in assay [4]; < 100 nM in assay [5]; 100 to 500 nM in assay [1] (setting [9]); 100 to 500 nM in assay [2] (setting [10]); 100 to 500 nM in assay [3] (setting [11]); 1000 to 10000 nM in assay [6].

As for `Cc1ccc(NC(=O)c2cc(C(F)(F)F)cnn2)cc1-c1cc(C2CC2)nc(N2CCOCC2)c1` [Example 3], the IC50 was 100 to 500 nM in assay [4]; 100 to 500 nM in assay [5]; < 100 nM in assay [1] (setting [9]); 100 to 500 nM in assay [2] (setting [10]); 100 to 500 nM in assay [3] (setting [11]); < 100 nM in assay [6].

Consider `Cc1cc(-c2cc(NC(=O)c3cc(C(F)(F)F)cnn3)ccc2C)cc(N2CCOCC2)n1` [Example 4], for which the IC50 in assay [4] was < 100 nM; in assay [5], < 100 nM; in assay [1] (setting [9]) it was 100 to 500 nM; in assay [2] (setting [10]), 100 to 500 nM; in assay [3] (setting [11]), < 100 nM; in assay [6], < 100 nM.

For `Cc1ccc(NC(=O)c2ccc(C(F)(F)F)nn2)cc1-c1cc(N[C@H](C)CO)nc(N2CCOCC2)c1` [Example 5], the IC50 in assay [4] fell in the range of 1000 to 10000 nM; in assay [5], 500 to 1000 nM; in assay [1] (setting [9]) it was 100 to 500 nM; in assay [2] (setting [10]) it was 1000 to 10000 nM; in assay [3] (setting [11]), 1000 to 10000 nM; in assay [6], 1000 to 10000 nM.

`Cc1ccc(NC(=O)c2cc(C(F)(F)F)cnn2)cc1-c1cc(N[C@H](C)CO)nc(N2CC3CC(C2)O3)c1` [Example 7]: the IC50 in assay [4] was 100 to 500 nM; in assay [5], 100 to 500 nM; in assay [1] (setting [9]), < 100 nM; in assay [3] (setting [11]), < 100 nM; in assay [6], 500 to 1000 nM. The “HCT-116 (inhibition of cell proliferation, IC50)” value in assay [2] (67 to 72 h incubation, resazurin) is “++ ++”.

For `Cc1ccc(NC(=O)c2cc(C(F)(F)F)cnn2)cc1-c1ccnc(N2CCOC(C(F)(F)F)C2)c1` (stereo not shown) [Example 8], the IC50 in assay [4] lay within 1000 to 10000 nM; in assay [5], 1000 to 10000 nM; in assay [1] (setting [9]), 100 to 500 nM; in assay [2] (setting [10]) it was 100 to 500 nM; in assay [3] (setting [11]), 500 to 1000 nM; in assay [6] it was 500 to 1000 nM.

With `Cc1ccc(NC(=O)c2cncc(Cl)n2)cc1-c1cc(N[C@H](C)CO)nc(N2CCOCC2)c1` [Example 9], the IC50 in assay [4] was 100 to 500 nM; in assay [5], 100 to 500 nM; in assay [1] (setting [9]), 1000 to 10000 nM; in assay [2] (setting [10]) it was 1000 to 10000 nM; in assay [3] (setting [11]) it was 500 to 1000 nM; in assay [6], 1000 to 10000 nM.

With `Cc1ccc(NC(=O)c2cc(C(F)(F)F)cnn2)cc1-c1nccc(N2CCOCC2)n1` [Example 10], the IC50 in assay [4], in assay [5], in assay [1] (setting [9]), in assay [2] (setting [10]), in assay [3] (setting [11]) and in assay [6] was 1000 to 10000 nM throughout.

Regarding `Cc1ccc(NC(=O)c2cnc(C(F)(F)F)nc2)cc1-c1cc(OCCO)nc(N2CCOCC2)c1` [Example 11], the IC50 lay in the range of 1000 to 10000 nM in assay [4]; 500 to 1000 nM in assay [5]; 100 to 500 nM in assay [1] (setting [9]); 100 to 500 nM in assay [2] (setting [10]); 100 to 500 nM in assay [3] (setting [11]); 500 to 1000 nM in assay [6].

`Cc1ccc(NC(=O)c2cnc(C(F)(F)F)nc2)cc1-c1cc(N[C@H](C)CO)nc(N2CCOCC2)c1` [Example 12]: the IC50 in assay [4] is 500 to 1000 nM; in assay [5], 100 to 500 nM; in assay [1] (setting [9]), 500 to 1000 nM; in assay [2] (setting [10]), 1000 to 10000 nM; in assay [3] (setting [11]) it was 1000 to 10000 nM; in assay [6] it was 1000 to 10000 nM.

`Cc1ccc(NC(=O)c2cncc(C(C)C)c2)cc1-c1cc(N[C@H](C)CO)nc(N2CCOCC2)c1` [Example 13]: the IC50 in assay [4] was < 100 nM; in assay [5], < 100 nM; in assay [1] (setting [9]), 500 to 1000 nM; in assay [2] (setting [10]), 100 to 500 nM; in assay [3] (setting [11]), 500 to 1000 nM; in assay [6], 1000 to 10000 nM.

In the case of `Cc1ccc(NC(=O)c2cc(Cl)cnn2)cc1-c1cc(N[C@H](C)CO)nc(N2CCOCC2)c1` [Example 15], the IC50 in assay [4] was 100 to 500 nM; in assay [5] it was < 100 nM; in assay [1] (setting [9]), < 100 nM; in assay [2] (setting [10]), < 100 nM; in assay [3] (setting [11]) it was 100 to 500 nM; in assay [6] it was 100 to 500 nM.

In the case of `Cc1ccc(NC(=O)c2cc(C(F)(F)F)cnn2)cc1-c1ccnc(N2C[C@@H](C)O[C@@H](C)C2)c1` [Example 84], the IC50 in assay [4], in assay [5], in assay [1] (setting [9]), in assay [2] (setting [10]) and in assay [3] (setting [11]) was 1000 to 10000 nM throughout.

On to `CCCS(=O)(=O)Nc1ccc(F)c(C(=O)c2c[nH]c3ncc(-c4ccc(Cl)cc4)cc23)c1F` [Vemurafenib, vemurafenib, reference compound], for which the IC50 in assay [1] (setting [7]) and in assay [2] (setting [8]) was 1000 to 10000 nM each time.

Values taken from US20250206729A1, “DUAL RAF AND TUBULIN INHIBITORS AND METHODS OF USE THEREOF” (Deciphera Pharmaceuticals, LLC, priority 2023, published 2025).
